Laboratory results reported in patent US20090104119A1, “Dendrimer Based Compositions And Methods Of Using The Same” (priority 2004, published 2009).

Columns and labels:
KB cells [1] = assay: Inhibition of cell growth by XTT assay; format: cell-based, human; conditions: 1, 2 or 3 days
Procedure: Cell culture and treatment.
Evaluation of dendrimer cytotoxicity.
Because the binding of the conjugate to KB cells reaches maximal uptake within 1 h (Quintana et al, 2002. Pharmaceutical Research 19: 1310-1316.), the effect of the G5-FI-FA-MTX on cell growth was initially tested by pre-incubation of cells with the conjugate for 1 h, followed by incubation in a drug-free medium for 5 d. […] When the cells were pre-incubated with dendrimers for 4 h, there was a modest decrease of about 10% in cell growth as determined by XTT assay. The cytotoxicity measurements were therefore done by incubation with the dendrimer for a minimum of 24 h, a pre-incubation time period shown to induce significant cytotoxicity.
The inhibition of cell growth induced by the conjugates was also tested by XTT assay which is based on the conversion of XTT to formazan by the active mitochondria of live cells (See, e.g., Roehm et al, J Immunol Methods 142, 257 (1991)).
As free FA blocks the uptake of the dendrimers as well as rescues cells from MTX-induced cytotoxicity, the effect of pre-incubation of cells with excess FA on the anti-proliferative effect of G5-FITC-FA-MTX was tested. KB cells were exposed to different concentrations of the conjugate or free MTX for 24 h in the absence or presence of 50 μM FA. The incubation medium was removed, the cells were rinsed and incubated with fresh medium for 5 additional days in the absence of the drugs, and the XTT assay was performed (See, e.g., FIG. 24, □, ▪, represents cells treated with MTX; Δ, ▴, represents cells treated with G5-FITC-FA-MTX).
The anti-proliferative effect of the MTX-conjugates was compared to conjugates that lacked either the FA or the FITC molecule. KB cells were incubated with 30 nM of the conjugates (=150 nM effective MTX concentration) for 24 h and the incubation medium was removed. The cells were rinsed and incubated for an additional 5 d in fresh medium in the absence of the drugs, and the XTT assay was performed.

KB cells [2] = assay: Inhibition of cell growth by total cell protein
Procedure: Cell culture and treatment. KB cells were maintained in folate-free medium containing 10% serum (See, e.g., Quintana et al, Pharm. Res. 19, 1310 (2002)) to provide extracellular FA similar to that found in human serum. Cells were plated in 12-well plates for uptake studies, in 24-well plates for cell growth analysis, and in 96-well plates for XTT assay. Cells were rinsed with FA-free medium containing dialyzed serum and incubated at 37° C. with dendrimer-drug conjugates for the indicated time periods and concentrations. KB cells were also maintained in RPMI medium containing 2 μM FA to obtain cells which express low FAR.
Evaluation of dendrimer cytotoxicity. Cell growth was determined by assay of the total protein in lysates of treated cells using a bicinchoninic acid reagent (PIERCE, and by XTT assay, using a kit from Roche.
Time course and dose dependent inhibition of cell growth. Previous studies have shown that MTX-induced cytotoxicity is detectable in vitro only if the medium is completely deprived of FA (See, e.g., Sobrero & Bertino, Int. J. Cell Cloning 4, 51 (1986)). The effect of the trifunctional dendrimers on cell growth was tested in cells incubated in a FA-deficient medium. Cells were treated with 300 nM conjugates (equivalent of 1500 nM MTX) or 1500 nM free MTX for 1-4 days, and cell proliferation was determined by estimation of cellular protein content. Cells were treated for 2 days with different concentrations of the conjugates or free MTX (the conjugate concentration is given as MTX equivalents, with 5 MTX per dendrimer molecule). KB cells which express high and low FAR were incubated with 30 nM of the dendrimers for 1 hr at 37° C., rinsed, and the fluorescence of cells was determined by flow cytometric analysis (See. e.g., FIG. 21, left panel).
KB cells were treated with 150 or 500 nM MTX in the presence or absence of equimolar concentrations of free FA for 24 h. […] The cells were rinsed to remove the drugs and incubated with fresh medium for an additional 6 d, and total cell protein was determined.

s.c. human KB xenografts = assay: Targeted drug delivery, tumor growth and survival in SCID mice with KB xenografts; format: in vivo, SCID CB-17 mice; conditions: for effect on tumor growth: first trial
Procedure: Recipient animal and tumor model.
(§1) Delivery of targeted nanoparticle therapeutic. Twice weekly, SCID mice with s.c. KB xenografts, starting on day 4 after tumor implantation, received via the tail vein an injection of either targeted or nontargeted conjugate containing methotrexate, a conjugate without methotrexate, free methotrexate, or saline as a control. The compounds were delivered in a 0.2 mL volume of saline per 20 g of mouse. The single dose of methotrexate delivered each time equaled 0.33 mg/kg. The higher doses of 1.67 and 3.33 mg/kg free methotrexate were also tested. The conjugates were delivered at equimolar concentration of methotrexate calculated based on the number of methotrexate molecules present in a nanoparticle. The conjugate without methotrexate was delivered at equimolar concentration of dendrimer. In the initial trial, six groups of mice with five mice in each group received up to 15 injections. In the follow-up trial, mice received up to 28 injections dependent on their survival. The body weights of the mice were monitored throughout the experiment as an indication of adverse effects of the drug. Histopathology of multiple organs was done at the termination of each trial and each time mouse had to be euthanized due to toxic effects or tumor burden. Tissues from lung, heart, liver, pancreas, spleen, kidney, and tumor were analyzed. Additionally, cells were isolated from tumors, stained with targeted fluorescein-labeled conjugate, and tested for the presence of folic acid receptors using flow cytometer.
Targeted drug delivery to tumor cells through the folate receptor. The efficacy of different doses of conjugates was tested on SCID CB-17 mice bearing s.c. human KB xenografts and was compared with equivalent and higher doses of free methotrexate. Mice were maintained on the folic acid-deficient diet for 3 weeks before injection of the KB tumor cells to achieve circulating levels of folic acid that approach those in human serum and to prevent down-regulation of folate receptors on tumor xenografts (See, Mathias et al., J Nucl Med 29, 1579 (1998)). Six groups of SCID mice with five mice in each group were injected s.c. on one flank with 5×10^6 KB cells in 0.2 mL PBS suspension. The highest total dose of G5-FI-FA-MTX therapeutic used equals 55.0 mg/kg and is equivalent to a 5.0 mg/kg total cumulative dose of free methotrexate (FIG. 29). The therapeutic dose of the conjugate was compared with three cumulative doses of free methotrexate equivalent to 33.3, 21.7, and 5.0 mg/kg accumulated in 10 to 15 injections based on mouse survival. Saline and the conjugate without methotrexate (G5-FI-FA) were used as controls.

[3] = Toxicity of dendrimer conjugates and free methotrexate in mice (body weight, histopathology); format: in vivo
Procedure: as §1
Toxicity of dendrimer conjugates. […] No gross toxicity, either acutely or chronically up to 99 days, was observed regardless of whether the dendrimer conjugate contained methotrexate. The weight was monitored throughout the experiment and no loss of weight was observed; in fact, the animals gained weight. At each time point, a gross examination and histopathology of the liver, spleen, kidney, lung, and heart were done. No morphologic abnormalities were observed on the histopathology examination.
The remaining experimental groups had very uniform body weight fluctuations nonindicative of toxicity when compared with control groups with saline or conjugate without methotrexate.

KB tumor = assay: Biodistribution of fluorescent dendrimer conjugates in tumor (confocal microscopy, flow cytometry); format: in vivo, mice; conditions: single-cell suspension from tumors, versus nontargeted
Procedure: Biodistribution of fluorescent dendrimer conjugates. […] Flow cytometry analysis was done with single-cell suspension isolated from tumor. Tumor was crushed, cell suspension filtered through 70 μm nylon mesh (Becton Dickinson, Franklin Lakes, N.J.), and washed with in PBS. Samples were analyzed using an EPICS XL flow cytometer (Coulter, Miami, Fla.). As determined by prior propidium iodine staining, only live cells were gated for analysis. Data were reported as the mean channel fluorescence of the cell population.
For confocal microscope imaging, tissue was dissected, embedded in OCT, and frozen in 2-methyl-butane in a dry ice bath. Sections (15 μm) were cut on a cryostat, thaw mounted onto slides, and stored at −80° C. until stained. After staining, the slides were fixed in 4% paraformaldehyde, rinsed in phosphate buffer (0.1 mol/L; pH 7.2), and mounted in Prolong. The images were acquired using a Zeiss 510 metalaser scanning confocal microscope equipped with a ×40 Plan-Apo 1.2 numerical aperture (water immersion) objective with a correction collar. The confocal image was recorded as 512×512×48 pixels with a scale of 0.45×0.45×0.37 μm per pixel. Each image cube was optically cut into 48 sections, and the sections that cut through the nucleus and cytoplasm were presented.
Targeting and internalization of fluorescent dendrimer conjugate. […]

Compound	inhibition of cell growth, XTT (KB cells [1])	inhibition of cell growth (FIGS. 21 and 22) (KB cells [2]; FA-deficient medium, 1-4 days, different concentrations)	growth inhibition, free MTX versus equimolar MTX in G5-FITC-FA-MTX (KB cells [2]; below 1 μM)	effect on tumor growth (s.c. human KB xenografts; up to 15 injections, cumulative 5.0 mg/kg methotrexate equivalents or equimolar dendrimer)	effect on tumor growth (s.c. human KB xenografts; cumulative 33.3 and 21.7 mg/kg)	day by which all mice died (s.c. human KB xenografts; second 99-day trial)	survivors at the termination of the trial (s.c. human KB xenografts; second 99-day trial)	time at which doses became lethal ([3]; cumulative doses 33.3 and 21.7 mg/kg)	histopathology of the liver ([3]; mouse, in vivo)	toxicity ([3]; total accumulated dose equivalent to 5.0 mg/kg free methotrexate)	mean channel fluorescence of tumor cells, flow cytometry (KB tumor)
CN(Cc1cnc2nc(N)nc(N)c2n1)c1ccc(C(=O)N[C@@H](CCC(=O)O)C(=O)O)cc1 [MTX, Methotrexate, reference compound]	time-dependent cytotoxicity	inhibited cell growth in a time- and dose-dependent fashion	higher	no effect on tumor growth	affecting tumor growth	≤ 66 days	no mice surviving	32 to 36 days	advanced liver lesions, collections of inflammatory cells, and periportal inflammation	nor free methotrexate at the same dose were toxic	
G5-(Ac)82-(6-TAMRA)3-(FA)4 [G5-6T-FA]											higher
